Assay results taken from US10485235B2, “Aryloxypyrimidinyl ethers as herbicides” (FMC Corporation, priority 2015, dated 2019).

How the values were obtained:
Assay type in all cases: in vivo
[1] = test system: barnyardgrass (Echinochloa crus-galli); assay: Test A preemergence, barnyardgrass; details: Preemergence, 0 to 100 scale (0 no effect, 100 complete control)
Method in brief: (§1)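 For postemergence, one- to two-leaf plants 2–10 cm tall were sprayed; for preemergence, seeded loam–sand soil got a directed spray. Both used compound in a non-phytotoxic, surfactant-containing solvent, with visual injury ratings (0–100) after roughly 10 greenhouse days.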

kochia (Kochia scoparia) [2] = assay: Test A preemergence, kochia; details: Preemergence, 0 to 100 scale (0 no effect, 100 complete control)
Method in brief: as §1

[3] = test system: ragweed (common ragweed, Ambrosia elatior); assay: Test A preemergence, ragweed; details: Preemergence, 0 to 100 scale (0 no effect, 100 complete control)
Method in brief: as §1

[4] = test system: ryegrass, Italian (Italian ryegrass, Lolium multiflorum); assay: Test A preemergence, Italian ryegrass; details: Preemergence, 0 to 100 scale (0 no effect, 100 complete control)
Method in brief: as §1

[5] = test system: foxtail, giant (giant foxtail, Setaria faberii); assay: Test A preemergence, giant foxtail; details: Preemergence, 0 to 100 scale (0 no effect, 100 complete control)
Method in brief: as §1

[6] = test system: pigweed (Amaranthus retroflexus); assay: Test A preemergence, pigweed; details: Preemergence, 0 to 100 scale (0 no effect, 100 complete control)
Method in brief: as §1

[7] = test system: barnyardgrass (Echinochloa crus-galli); assay: Test A postemergence, barnyardgrass
Method in brief: as §1

kochia (Kochia scoparia) [8] = assay: Test A postemergence, kochia
Method in brief: as §1

[9] = test system: ragweed (common ragweed, Ambrosia elatior); assay: Test A postemergence, ragweed
Method in brief: as §1

[10] = test system: ryegrass, Italian (Italian ryegrass, Lolium multiflorum); assay: Test A postemergence, Italian ryegrass
Method in brief: as §1

[11] = test system: foxtail, giant (giant foxtail, Setaria faberii); assay: Test A postemergence, giant foxtail
Method in brief: as §1

[12] = test system: pigweed (Amaranthus retroflexus); assay: Test A postemergence, pigweed
Method in brief: as §1

[13] = test system: wheat (Triticum aestivum); assay: Test A postemergence, wheat
Method in brief: as §1

corn (Zea mays) = assay: Test A postemergence, corn
Method in brief: as §1

[14] = test system: blackgrass (Alopecurus myosuroides); assay: Test A postemergence, blackgrass
Method in brief: as §1

[15] = test system: galium (catchweed bedstraw, Galium aparine); assay: Test A postemergence, galium
Method in brief: as §1

rice (Oryza sativa) = assay: Test B flooded paddy test, rice; details: 250 g ai/ha, Flood; visual rating after 13 to 15 days; scale 0 to 100, 0 is no effect, 100 is complete control
Method in brief: (§2)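 Visual injury scored 0 (no effect) to 100 (complete control) relative to controls 13-15 days after treatment in greenhouse. Treatment: test compound added into paddy water of pots flooded 3 cm over soil, holding 2-leaf-stage plants; water level kept constant.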

[16] = test system: sedge, umbrella (small-flower umbrella sedge, Cyperus difformis); assay: Test B flooded paddy test, umbrella sedge; details: 250 g ai/ha, Flood; visual rating after 13 to 15 days; scale 0 to 100, 0 is no effect, 100 is complete control
Method in brief: as §2

[17] = test system: ducksalad (Heteranthera limosa); assay: Test B flooded paddy test, ducksalad; details: 250 g ai/ha, Flood; visual rating after 13 to 15 days; scale 0 to 100, 0 is no effect, 100 is complete control
Method in brief: as §2

[18] = test system: barnyardgrass (Echinochloa crus-galli); assay: Test B flooded paddy test, barnyardgrass; details: 250 g ai/ha, Flood; visual rating after 13 to 15 days; scale 0 to 100, 0 is no effect, 100 is complete control
Method in brief: as §2

[19] = 125 g ai/ha, postemergence, 0 to 100 scale, 0 is no effect, 100 is complete control, approximately 10 days
[20] = Postemergence, 31 g ai/ha, 0 to 100 scale (0 no effect, 100 complete control)
[21] = 500 g ai/ha, postemergence, 0 to 100 scale, 0 is no effect, 100 is complete control, approximately 10 days

N#Cc1cccc(Oc2ncc(Cl)cn2)c1OCCCC(F)(F)F [Compound 72]
40: Plant response rating, Foxtail, Giant [11, 19]
10: Plant response rating, Barnyardgrass ([1]; 31 g ai/ha) | Plant response rating, Kochia (kochia (Kochia scoparia) [2]; 125 g ai/ha) | Plant response rating, Foxtail, Giant ([5]; 31 g ai/ha) | Plant response rating, Barnyardgrass [7, 20] | Plant response rating, Ragweed [9, 19] | Plant response rating, Ryegrass, Italian [10, 19] | Plant response rating, Foxtail, Giant [11, 20] | Plant response rating, Corn (corn (Zea mays); [20])
80: Plant response rating, Barnyardgrass ([1]; 125 g ai/ha)
70: Plant response rating, Kochia (kochia (Kochia scoparia) [8]; [19])
25: Plant response rating, Barnyardgrass [18]
0: Plant response rating, Kochia (kochia (Kochia scoparia) [2]; 31 g ai/ha) | Plant response rating, Ragweed ([3]; 31 g ai/ha) | Plant response rating, Ragweed ([3]; 125 g ai/ha) | Plant response rating, Ryegrass, Italian ([4]; 31 g ai/ha) | Plant response rating, Pigweed ([6]; 31 g ai/ha) | Plant response rating, Ragweed [9, 20] | Plant response rating, Ryegrass, Italian [10, 20] | Plant response rating, Wheat [13, 19] | Plant response rating, Wheat [13, 20] | Plant response rating, Blackgrass [14, 20] | Plant response rating, Rice (rice (Oryza sativa))
30: Plant response rating, Barnyardgrass [7, 19] | Plant response rating, Kochia (kochia (Kochia scoparia) [8]; [20]) | Plant response rating, Pigweed [12, 20]
100: Plant response rating, Ducksalad [17]
60: Plant response rating, Pigweed ([6]; 125 g ai/ha) | Plant response rating, Pigweed [12, 19] | Plant response rating, Galium [15, 19]
20: Plant response rating, Ryegrass, Italian ([4]; 125 g ai/ha) | Plant response rating, Corn (corn (Zea mays); [19]) | Plant response rating, Blackgrass [14, 19] | Plant response rating, Galium [15, 20]
90: Plant response rating, Foxtail, Giant ([5]; 125 g ai/ha) | Plant response rating, Sedge, Umbrella [16]

CC(COc1c(C#N)cccc1Oc1ncc(Cl)cn1)CC(F)(F)F (stereo not drawn) [Compound 34]
90: Plant response rating, Kochia (kochia (Kochia scoparia) [8]; [19]) | Plant response rating, Foxtail, Giant [11, 21] | Plant response rating, Galium [15, 21]
100: Plant response rating, Barnyardgrass ([1]; 500 g ai/ha) | Plant response rating, Kochia (kochia (Kochia scoparia) [2]; 500 g ai/ha) | Plant response rating, Foxtail, Giant ([5]; 125 g ai/ha) | Plant response rating, Foxtail, Giant ([5]; 500 g ai/ha) | Plant response rating, Pigweed ([6]; 125 g ai/ha) | Plant response rating, Pigweed ([6]; 500 g ai/ha) | Plant response rating, Kochia (kochia (Kochia scoparia) [8]; [21]) | Plant response rating, Pigweed [12, 19] | Plant response rating, Pigweed [12, 21]
60: Plant response rating, Blackgrass [14, 21]
0: Plant response rating, Ragweed ([3]; 125 g ai/ha) | Plant response rating, Ryegrass, Italian [10, 19] | Plant response rating, Barnyardgrass [18]
75: Plant response rating, Sedge, Umbrella [16]
20: Plant response rating, Barnyardgrass [7, 19] | Plant response rating, Ryegrass, Italian [10, 21] | Plant response rating, Wheat [13, 21] | Plant response rating, Corn (corn (Zea mays); [19]) | Plant response rating, Blackgrass [14, 19] | Plant response rating, Rice (rice (Oryza sativa))
50: Plant response rating, Barnyardgrass [7, 21]
40: Plant response rating, Ryegrass, Italian ([4]; 500 g ai/ha) | Plant response rating, Foxtail, Giant [11, 19] | Plant response rating, Corn (corn (Zea mays); [21]) | Plant response rating, Ducksalad [17]
80: Plant response rating, Kochia (kochia (Kochia scoparia) [2]; 125 g ai/ha)
10: Plant response rating, Ragweed ([3]; 500 g ai/ha) | Plant response rating, Ryegrass, Italian ([4]; 125 g ai/ha) | Plant response rating, Ragweed [9, 19] | Plant response rating, Ragweed [9, 21] | Plant response rating, Wheat [13, 19]
70: Plant response rating, Barnyardgrass ([1]; 125 g ai/ha) | Plant response rating, Galium [15, 19]

Fc1cccc(Oc2ncc(Cl)cn2)c1OCCCC(F)(F)F [Compound 27]
30: Plant response rating, Ryegrass, Italian [10, 21] | Plant response rating, Blackgrass [14, 19] | Plant response rating, Galium [15, 19]
60: Plant response rating, Pigweed [12, 21] | Plant response rating, Blackgrass [14, 21]
80: Plant response rating, Foxtail, Giant ([5]; 125 g ai/ha) | Plant response rating, Barnyardgrass [7, 21] | Plant response rating, Kochia (kochia (Kochia scoparia) [8]; [19]) | Plant response rating, Foxtail, Giant [11, 21]
0: Plant response rating, Ragweed ([3]; 125 g ai/ha) | Plant response rating, Ragweed [9, 19] | Plant response rating, Ryegrass, Italian [10, 19] | Plant response rating, Wheat [13, 19] | Plant response rating, Corn (corn (Zea mays); [19]) | Plant response rating, Rice (rice (Oryza sativa)) | Plant response rating, Barnyardgrass [18]
50: Plant response rating, Barnyardgrass [7, 19] | Plant response rating, Pigweed [12, 19]
10: Plant response rating, Ragweed [9, 21] | Plant response rating, Wheat [13, 21] | Plant response rating, Corn (corn (Zea mays); [21])
70: Plant response rating, Kochia (kochia (Kochia scoparia) [2]; 125 g ai/ha) | Plant response rating, Sedge, Umbrella [16]
90: Plant response rating, Barnyardgrass ([1]; 125 g ai/ha) | Plant response rating, Ryegrass, Italian ([4]; 500 g ai/ha) | Plant response rating, Pigweed ([6]; 125 g ai/ha) | Plant response rating, Galium [15, 21] | Plant response rating, Ducksalad [17]
40: Plant response rating, Ryegrass, Italian ([4]; 125 g ai/ha)
100: Plant response rating, Barnyardgrass ([1]; 500 g ai/ha) | Plant response rating, Kochia (kochia (Kochia scoparia) [2]; 500 g ai/ha) | Plant response rating, Foxtail, Giant ([5]; 500 g ai/ha) | Plant response rating, Pigweed ([6]; 500 g ai/ha) | Plant response rating, Kochia (kochia (Kochia scoparia) [8]; [21])
20: Plant response rating, Ragweed ([3]; 500 g ai/ha) | Plant response rating, Foxtail, Giant [11, 19]
